Eight compounds from PubChem BioAssay (NCI) can be followed below.

Each structure is given as a SMILES string.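 Following 48 hours of exposure in 96-well plates, responses at five concentrations were used to interpolate endpoints linearly. GI50: concentration for 50% inhibition of growth. TGI: total growth inhibition.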

Among the test systems are SN12C renal; SNB-75 CNS; COLO 205 colon; NCI-H522 lung; U251 CNS; MALME-3M melanoma; BT-549 breast; MCF7 breast; IGROV1 ovarian; CAKI-1 renal.
Holding throughout (experiment): DTP human tumour cell line panel, 48 h

As to `C/C=C(\C)C(=O)O[C@H]1C=CC(=O)O[C@H]1COC(=O)[C@H](C)O`, the GI50 (in general, the concentration that inhibits growth by half) in the experiment on SN12C renal is 12.9 µM; with SNB-75 CNS, 6.95 µM; in the experiment on COLO 205 colon it was 3.07 µM; in the experiment with NCI-H522 lung, 7.1 µM; in the experiment with U251 CNS it was 7.35 µM; with MALME-3M melanoma it was 5.5 µM. Also, the GI50 is 9.56 µM with BT-549 breast, 3.4 µM in the experiment with MCF7 breast, 10.2 µM in the experiment on IGROV1 ovarian and 5.46 µM in the experiment on CAKI-1 renal. In addition, the TGI (commonly the concentration giving total growth inhibition) in the experiment with SN12C renal is 28.3 µM; in the experiment with SNB-75 CNS it was 20.9 µM; in the experiment on COLO 205 colon, 15.5 µM; in the experiment with NCI-H522 lung, 23.7 µM; with U251 CNS it was 21 µM; with MALME-3M melanoma it was 15.8 µM. Moreover, the concentration for total growth inhibition (TGI) amounted to 21.7 µM with BT-549 breast, 14.1 µM in the experiment with MCF7 breast, 33.7 µM with IGROV1 ovarian and 14.9 µM in the experiment with CAKI-1 renal.

On to `CC(C)C(=O)c1c(C(F)(F)F)n([O-])c2ccccc2[n+]1=O`, for which the GI50 was 1.77 µM with SN12C renal; 15.2 µM in the experiment on SNB-75 CNS; 1.31 µM with COLO 205 colon; 1.76 µM in the experiment on NCI-H522 lung; 2.84 µM in the experiment on U251 CNS; 0.654 µM in the experiment on MALME-3M melanoma. Moreover, the GI50 with BT-549 breast was 1.06 µM; with MCF7 breast, 0.731 µM; with IGROV1 ovarian, 1.11 µM; in the experiment with CAKI-1 renal, 0.689 µM. The TGI was 3.97 µM with SN12C renal; greater than 42.7 µM in the experiment with SNB-75 CNS; 2.97 µM in the experiment with COLO 205 colon; 15.1 µM with NCI-H522 lung; greater than 33.2 µM in the experiment with U251 CNS; 2.03 µM with MALME-3M melanoma. Moreover, the TGI in the experiment with BT-549 breast worked out at 3.08 µM; in the experiment with MCF7 breast, 6.06 µM; in the experiment with CAKI-1 renal, 2.1 µM.

As for `Cc1sc2c(c1C)C(c1ccc(Cl)cc1)=N[C@@H](CC(=O)NCCCN1CCN(C)CC1)c1nnc(C)n1-2`, the GI50 was 7.36 µM in the experiment with SN12C renal; less than 0.0106 µM with SNB-75 CNS; 0.0995 µM with COLO 205 colon; 0.0746 µM in the experiment on NCI-H522 lung; 8.88 µM with U251 CNS; 0.992 µM in the experiment on MALME-3M melanoma. In addition, the GI50 in the experiment with BT-549 breast is 3.51 µM; with MCF7 breast, 0.0564 µM; with IGROV1 ovarian, 0.618 µM; in the experiment with CAKI-1 renal, 0.684 µM. Moreover, the TGI with SN12C renal is greater than 100 µM; with SNB-75 CNS, 0.16 µM; in the experiment with COLO 205 colon, greater than 100 µM; with NCI-H522 lung, greater than 100 µM; in the experiment on U251 CNS, greater than 100 µM; in the experiment with MALME-3M melanoma it was greater than 100 µM. Besides, the concentration for total growth inhibition (TGI) in the experiment on BT-549 breast, with MCF7 breast, in the experiment on IGROV1 ovarian and in the experiment with CAKI-1 renal was greater than 100 µM each time.

As to `CCC1(c2ccc(N)cc2)CCC(=O)NC1=O` (stereo not drawn), the TGI in the experiment on SN12C renal was greater than 5000 µM; with SNB-75 CNS, 4490 µM; in the experiment with COLO 205 colon, 3070 µM; in the experiment on NCI-H522 lung, 4950 µM; with U251 CNS, greater than 4060 µM; with MALME-3M melanoma, greater than 4860 µM. Besides, the TGI in the experiment with BT-549 breast was greater than 5000 µM; with MCF7 breast it was greater than 5000 µM; in the experiment on IGROV1 ovarian, greater than 4850 µM; with CAKI-1 renal it was 4310 µM.

Turning to `CN(C)Cc1c(C(=O)NCCOc2ccc(C(=O)NO)cc2)oc2ccccc12`, the GI50 was 0.459 µM in the experiment with SN12C renal; 0.153 µM in the experiment on SNB-75 CNS; 0.133 µM in the experiment with COLO 205 colon; 0.0819 µM with NCI-H522 lung; 0.229 µM in the experiment on U251 CNS; 0.0709 µM with MALME-3M melanoma. Also, the GI50 in the experiment on BT-549 breast is 0.519 µM; in the experiment on MCF7 breast, 0.261 µM; with IGROV1 ovarian, 0.438 µM; in the experiment on CAKI-1 renal, 0.311 µM. Moreover, the TGI in the experiment with SN12C renal is greater than 100 µM; in the experiment with SNB-75 CNS, greater than 40.7 µM; in the experiment with COLO 205 colon, 0.282 µM; in the experiment with NCI-H522 lung it was 0.574 µM; in the experiment on U251 CNS, 0.976 µM; in the experiment on MALME-3M melanoma, 36.2 µM. Moreover, the TGI in the experiment with BT-549 breast was found to be 13.8 µM; in the experiment with IGROV1 ovarian it was 3.6 µM; in the experiment with CAKI-1 renal it was 1.57 µM.

With `NC(=O)c1cc(Br)ccc1NC(=O)/C=C/c1ccccc1`, the GI50 was 4.9 µM with SN12C renal; 2.16 µM with SNB-75 CNS; 1.23 µM with COLO 205 colon; 0.981 µM with NCI-H522 lung; 1.81 µM in the experiment on U251 CNS; 11.6 µM with MALME-3M melanoma. Besides, the GI50 was 4.97 µM in the experiment with BT-549 breast, 0.757 µM in the experiment on MCF7 breast, 2.35 µM in the experiment with IGROV1 ovarian and 6.17 µM in the experiment with CAKI-1 renal. Moreover, the TGI with SN12C renal is greater than 100 µM; with SNB-75 CNS, 10.7 µM; with COLO 205 colon, greater than 39.5 µM; in the experiment on NCI-H522 lung, 22 µM; with U251 CNS, greater than 43.4 µM; in the experiment on MALME-3M melanoma it was greater than 100 µM. The total growth inhibition concentration (TGI) in the experiment on BT-549 breast was 28.7 µM; in the experiment with MCF7 breast, greater than 100 µM; in the experiment with IGROV1 ovarian, greater than 100 µM; in the experiment with CAKI-1 renal, greater than 100 µM.

Regarding `O=[N+]([O-])c1ccc2c(c1)C(c1ccccc1Cl)=Nc1c(n[nH]c1-c1cccnc1)N2`, the GI50 in the experiment on SN12C renal was greater than 25 µM; in the experiment on SNB-75 CNS it was greater than 10.1 µM; with COLO 205 colon, greater than 25 µM; with NCI-H522 lung, greater than 25 µM; in the experiment with U251 CNS, greater than 25 µM; with MALME-3M melanoma, greater than 25 µM. Besides, the GI50 in the experiment with BT-549 breast, in the experiment on MCF7 breast, in the experiment with IGROV1 ovarian and with CAKI-1 renal was greater than 25 µM each time. In addition, the concentration for total growth inhibition (TGI) with SN12C renal, in the experiment on SNB-75 CNS, with COLO 205 colon, in the experiment with NCI-H522 lung, with U251 CNS and with MALME-3M melanoma was greater than 25 µM throughout. The TGI in the experiment on BT-549 breast, in the experiment with MCF7 breast, in the experiment on IGROV1 ovarian and with CAKI-1 renal was greater than 25 µM in each case.

With `CN(C)CCOc1ccccc1NC1=C(Cl)C(=O)C(Nc2ccccc2OCCN(C)C)=C(Cl)C1=O`, the GI50 in the experiment with SN12C renal is 0.573 µM; in the experiment with SNB-75 CNS it was greater than 39.4 µM; in the experiment with COLO 205 colon, 1.78 µM; with NCI-H522 lung, 0.502 µM; with U251 CNS, 10.2 µM; in the experiment with MALME-3M melanoma, 3.31 µM. The GI50 was 20.7 µM with BT-549 breast, 0.51 µM with MCF7 breast, 0.636 µM in the experiment on IGROV1 ovarian and 1.14 µM with CAKI-1 renal. Moreover, the TGI was 1.21 µM in the experiment with SN12C renal; greater than 82.1 µM in the experiment with SNB-75 CNS; 3.77 µM in the experiment on COLO 205 colon; 1.14 µM in the experiment with NCI-H522 lung; 39.5 µM with U251 CNS; 12.8 µM with MALME-3M melanoma. In addition, the TGI in the experiment with BT-549 breast was greater than 49.7 µM; with MCF7 breast, 1.18 µM; with IGROV1 ovarian it was 1.48 µM; in the experiment on CAKI-1 renal, 2.36 µM.
